Active and inactive are the calls of the source. No cut-off for these calls is given here.
Tests used:
[1] = tested on: DNA; assay: Induction of Escherichia coli supercoiled pUC19 plasmid DNA cleavage assessed as decrease in supercoiled form of plasmid at 25 uM incubated for 60 mins by agarose gel electrophoresis analysis; assay type: nucleic-acid assay
[2] = tested on: PANC-1; assay: Induction of apoptosis in human PANC-1 cells assessed as necrotic cells at 7.5 uM measured after 48 hrs by Annexin V and dead cell kit analysis (reference value: 1.05%); assay type: functional
[3] = tested on: PANC-1; assay: Down regulation of cyclin E1 expression in human PANC-1 cells at 0.5 to 5 uM measured after 24 hrs by Western blot analysis; assay type: functional, cell-based; settings: dose 0.5-5 µM
[4] = tested on: PANC-1; assay: Induction of reactive oxygen species generation in human PANC-1 cells at 1 uM measured after 12 hrs by cellrox-green reagent based assay; assay type: functional, cell-based
[5] = tested on: MCF7; assay: Induction of apoptosis in human MCF7 cells assessed as viable cells at 7.5 uM measured after 48 hrs by Annexin V and dead cell kit analysis (reference value: 97.4%); assay type: functional; settings: read-out: Activity
[6] = tested on: MCF7; assay: Cell cycle arrest in human MCF7 cells assessed as accumulation at G0/G1-phase at 5 uM measured after 24 hrs by muse cell analyser (reference value: 52.65 to 53.3%); assay type: functional
[7] = tested on: HCT-116; assay: Cytotoxicity against human HCT-116 cells assessed as reduction in cell viability measured after 72 hrs by MTS assay; assay type: functional, cell-based; settings: HCT-116, 72 h
[8] = tested on: PANC-1; assay: Cell cycle arrest in human PANC-1 cells assessed as accumulation at G2/M-phase at 7.5 uM measured after 24 hrs by muse cell analyser (reference value: 36.3 to 36.88%); assay type: functional
[9] = tested on: MCF7; assay: Cell cycle arrest in human MCF7 cells assessed as accumulation at G2/M-phase at 5 uM measured after 24 hrs by muse cell analyser (reference value: 30.92 to 33.6%); assay type: functional
[10] = tested on: PANC-1; assay: Up regulation of p53 expression in human PANC-1 cells at 0.5 to 5 uM measured after 24 hrs by Western blot analysis relative to control; assay type: functional, cell-based; settings: dose 0.5-5 µM
[11] = Up regulation of HIF1 expression in human MCF7 cells at 1 to 5 uM measured after 24 hrs by Western blot analysis relative to control; assay type: functional; settings: dose 1-5 µM
[12] = tested on: PANC-1; assay: Effect on cdc2 expression in human PANC-1 cells at 0.5 to 5 uM measured after 24 hrs by Western blot analysis; assay type: functional, cell-based; settings: dose 0.5-5 µM
[13] = tested on: PANC-1; assay: Cytotoxicity against human PANC-1 cells assessed as reduction in cell viability measured after 72 hrs by MTS assay; assay type: functional, cell-based; settings: PANC-1, 72 h
[14] = tested on: NHDF; assay: Cytotoxicity against NHDF cells assessed as reduction in cell viability measured after 72 hrs by MTS assay; assay type: cell-based; settings: Homo sapiens
[15] = tested on: MCF7; assay: Down regulation of p21 expression in human MCF7 cells at 5 uM measured after 24 hrs by Western blot analysis; assay type: functional, cell-based
[16] = tested on: U-251; assay: Cytotoxicity against human U-251 cells assessed as reduction in cell viability measured after 72 hrs by MTS assay; assay type: functional, cell-based; settings: U-251, 72 h
[17] = tested on: PANC-1; assay: Induction of apoptosis in human PANC-1 cells assessed as late apoptotic cells at 5 uM measured after 48 hrs by Annexin V and dead cell kit analysis (reference value: 2.4%); assay type: functional
[18] = tested on: PANC-1; assay: Induction of apoptosis in human PANC-1 cells assessed as early apoptotic cells at 5 uM measured after 48 hrs by Annexin V and dead cell kit analysis (reference value: 10.95%); assay type: functional

c1ccc(-c2cn(-c3ccc(-c4cc(-c5ccccn5)nc(-c5ccccn5)c4)cc3)nn2)nc1
Activity [1]: Active
Activity [2]: 1.8%
Activity [3]: inactive
Activity [4]: Active
viability at 7.5 µM [5]: 50.2%
Activity [6]: 55.97%
IC50 [7]: 243 nM
Activity [8]: 31%
Activity [9]: 22.4%
Activity [10]: inactive
fold change (FC) [11]: 45
Activity [12]: inactive
IC50 [13]: 114 nM
IC50 [14]: > 25000 nM
Activity [15]: Active
IC50 [16]: 855 nM
Activity [17]: 8.75%
Activity [18]: 41.4%
